Source: patent publication US20240398817A1, “CARDIO- AND RENOSAFE ANTIDIABETIC THERAPY” (priority 2018, published 2024)

System: patients with type 2 diabetes at high vascular risk
Experiment: Cardiovascular and Renal Outcomes Trial: linagliptin 5 mg once daily vs placebo on top of standard of care
Format: in vivo
Experimental: The effect of linagliptin on cardiovascular risk in adult patients with type 2 diabetes mellitus and with increased CV risk evidenced by a history of established macrovascular or renal disease (e.g. as defined herein) was evaluated in a multi-center, multi-national, randomized, double-blind parallel group trial. The trial compared the risk of experiencing a major adverse cardiovascular event (MACE) between linagliptin and placebo when these were added to and used concomitantly with standard of care treatments for diabetes (HbA1c), cardiovascular risk factors and renal disease.
The primary endpoint in this trial was the time to first occurrence of three point (3P) MACE. A major adverse cardiac event was defined as a cardiovascular death or a nonfatal myocardial infarction (MI) or a nonfatal stroke. The statistical analysis plan tested for non-inferiority for the occurrence of (3P) MACE. […] The secondary endpoint was a renal composite, defined as renal death or sustained end stage renal disease or sustained decrease of 40% or more in eGFR.
Type 2 diabetes patient with insufficient glycemic control (naïve or pre-treated with any antidiabetic background medication, excluding treatment with GLP-1 receptor agonists, DPP-4inhibitors or SGLT-2 inhibitors if ≥consecutive 7 days, e.g. having HbA1c 6.5-10%), and high risk of cardiovascular events, e.g. defined by: • albuminuria (micro or macro) and previous macrovascular disease: e.g. defined according to Condition I as indicated below; • and/or • impaired renal function: e.g. as defined according to Condition II as indicated below;
Background and aims: People with type 2 diabetes (T2D) are at increased risk for hospitalization for heart failure (hHF), particularly in the setting of concomitant cardiovascular (CV) and/or kidney disease. […] Here we present analyses of HF outcomes with the DPP-4 inhibitor linagliptin (LINA) vs. placebo (PBO) from a Cardiovascular and Renal Outcomes Trial assessing cardiovascular safety and renal microvascular outcome in patients with type 2 diabetes at high vascular risk, a large CV outcomes trial that enrolled participants with T2D at high risk for hHF due to concomitant CV and/or chronic kidney disease. Materials and methods: People with T2D and concomitant CV and/or kidney disease were randomized to receive LINA 5 mg, or PBO once daily (1:1), on top of standard of care. All hHF, CV outcomes, and deaths were centrally adjudicated, with individual and composite HF-related outcomes analyses comparing LINA vs. placebo. Investigator-reported HF-related adverse events, whether or not confirmed by adjudication, were also analyzed. A Cox proportional hazards model adjusting for region and history of HF was used for analyses of first events. Recurrent hHF events were analyzed using a negative binomial model.
Methods: The present Cardiovascular and Renal Outcomes Trial randomized people with T2D and i) concomitant CV disease with UACR >30 mg/g or ii) prevalent CKD (i.e. GFR <45 ml/min/1.73m2 and/or UACR >200 mg/g) to receive the DPP-4 inhibitor linagliptin (5 mg) or placebo once daily in a double-blind fashion. The primary CV endpoint was 3P-MACE, with a key secondary kidney endpoint (adjudicated ESKD, renal death, or sustained ≥40% decrease in eGFR from baseline) and other renal outcomes (including albuminuria and eGFR slope) also assessed. Subgroups were assessed by baseline kidney function (eGFR ≥/<45 ml/min/1.73m2and eGFR ≥/<30, 45 or 60 ml/min/1.73m2).
Adults with type 2 diabetes, HbA1c 6.5-10.0% inclusive, and high CV risk were eligible for inclusion. […] Macrovascular disease eligibility criteria was based on documented and confirmed history of myocardial infarction, coronary artery disease, stroke, carotid artery disease, or peripheral artery disease. Participants with end-stage kidney disease (ESKD), defined as eGFR <15 or requiring maintenance dialysis, were excluded.

[1] = eGFR ≥45 to <60 mL/min/1.73 m^2

## CC#CCn1c(N2CCC[C@@H](N)C2)nc2c1c(=O)n(Cc1nc(C)c3ccccc3n1)c(=O)n2C [Linagliptin, 1-[(4-methyl-quinazolin-2-yl)methyl]-3-methyl-7-(2-butyn-1-yl)-8-(3-(R)-amino-piperidin-1-yl)-xanthine]
eGFR ≥ 45 (n = 3979)
  Renal death, sustained ESKD, or ≥ doubling of se-creatinine: n: 54
  Renal death, sustained ESKD, or ≥ doubling of se-creatinine: rate/100 patient-years: 1.38 per 100 patient-years
[1]
  3-point MACE: hazard ratio vs placebo: 1.12
  3-point MACE: patients with event/patients analyzed: 81/690
  Key secondary kidney outcome: hazard ratio vs placebo: 0.94
  Key secondary kidney outcome: patients with event/patients analyzed: 51/690
eGFR ≥60 mL/min/1.73 m^2
  3-point MACE: hazard ratio vs placebo: 0.96
  3-point MACE: patients with event/patients analyzed: 103/1294
  Key secondary kidney outcome: hazard ratio vs placebo: 1.46
  Key secondary kidney outcome: patients with event/patients analyzed: 54/1294
First event of composite
  Non-fatal MI as component of 3-point MACE primary outcome: %: (4.4) %
  Non-fatal MI as component of 3-point MACE primary outcome: no.: 154
  Non-fatal stroke as component of 3-point MACE primary outcome: %: (1.7) %
  Non-fatal stroke as component of 3-point MACE primary outcome: no.: 59
In vivo
  4-point MACE (3-point MACE or hospitalization for unstable angina): no.: 463
  4-point MACE: %: (13.3) %
  4-point MACE: hazard ratio vs placebo: 1.00
  4-point MACE: rate/1000 patient-years: 62.0 per 1000 patient years
  Acute pancreatitis, adjudication confirmed: %: 0.3%
  Acute pancreatitis, adjudication confirmed: N: 9^1
  Adverse events leading to discontinuation: %: 10.3%
  Adverse events leading to discontinuation: N: 359
  Albuminuria progression: rate/100 patient-years: 21.36 per 100 patient-years
  Albuminuria progression: rate/1000 patient-years: 213.6 per 1000 patient years
  All cancers (malignancies): %: 3.3%
  All cancers (malignancies): N: 116
  Angioedema events with concomitant ACE/ARB use at baseline: %: 0.45%
  Angioedema events with concomitant ACE/ARB use at baseline: N: 13
  Any adverse events: %: 77.2%
  Changes in body weight or waist circumference vs placebo, in words: No clinically meaningful differences
  Changes in weight, systolic and diastolic blood pressure and LDL/HDL cholesterol vs placebo, in words: no different between groups
  Chronic pancreatitis, adjudication confirmed: %: 0.1%
  Chronic pancreatitis, adjudication confirmed: N: 2
  Colon cancer: %: 0.2%
  Colon cancer: N: 6
  Composite microvascular endpoint (renal and eye outcomes): number of patients: 785
  Composite microvascular endpoint: hazard ratio (95% CI) vs placebo: 0.86
  Composite microvascular endpoint: rate/1000 patient-years: 221.4 per 1000 patient years
  Composite ocular endpoint: hazard ratio vs placebo: 0.73
  Composite ocular endpoint: number of patients: 36
  Composite ocular endpoint: rate/1000 patient-years: 4.7 per 1000 patient years
  Composite renal endpoint 2 (50% eGFR) and composite renal endpoint 3 (30% eGFR with eGFR <60) vs placebo, in words: No significant difference
  Confirmed hypoglycemic adverse events with plasma glucose <54 mg/dl or severe event: %: 15.9%
  Confirmed hypoglycemic adverse events with plasma glucose <54 mg/dl or severe event: N: 557
  Contributing to composite microvascular outcome: patients with retinal laser coagulation or anti-VEGF injection for diabetic retinopathy, %: 0.2%
  Contributing to composite microvascular outcome: patients with sustained >50% eGFR decrease, %: 0.6%
  Contributing to composite microvascular outcome: patients with sustained ESKD, %: 0.3%
  Contributing to composite microvascular outcome: patients with vitreous haemorrhage, %: 0.1%
  Contributing to composite ocular outcome: patients with anti-VEGF injection for diabetic retinopathy, %: 0.3%
  Contributing to composite ocular outcome: patients with diabetes related blindness, %: 0.1%
  Contributing to composite ocular outcome: patients with retinal laser coagulation, %: 0.2%
  Contributing to composite ocular outcome: patients with vitreous haemorrhage, %: 0.5%
  Coronary revascularization procedure: %: (4.6) %
  Coronary revascularization procedure: hazard ratio vs placebo: 1.07
  Coronary revascularization procedure: no.: 160
  Coronary revascularization procedure: rate/1000 patient-years: 21.2 per 1000 patient years
  Difference between treatment groups in HbA1c changes from baseline over time, in words: significant up to the Week 132 visit
  Fasting plasma glucose (FPG) vs placebo, in words: significant differences observed between the treatment groups up to Week 84
  Fatal myocardial infarction: %: (0.3) %
  Fatal myocardial infarction: hazard ratio vs placebo: 0.78
  Fatal myocardial infarction: no.: 11
  Fatal myocardial infarction: rate/1000 patient-years: 1.4 per 1000 patient years
  Fatal or non-fatal myocardial infarction: %: (4.7) %
  Fatal or non-fatal myocardial infarction: hazard ratio vs placebo: 1.12
  Fatal or non-fatal myocardial infarction: no.: 165
  Fatal or non-fatal myocardial infarction: rate/1000 patient-years: 21.8 per 1000 patient years
  Fatal or non-fatal stroke: %: (2.3) %
  Fatal or non-fatal stroke: hazard ratio vs placebo: 0.91
  Fatal or non-fatal stroke: no.: 81
  Fatal or non-fatal stroke: rate/1000 patient-years: 10.6 per 1000 patient years
  Fatal stroke: %: (0.5) %
  Fatal stroke: hazard ratio vs placebo: 1.05
  Fatal stroke: no.: 17
  Fatal stroke: rate/1000 patient-years: 2.2 per 1000 patient years
  Gastric cancer: %: 0.0%
  Gastric cancer: N: 0
  Hospitalization for heart failure or cardiovascular death: %: (11.6) %
  Hospitalization for heart failure or cardiovascular death: hazard ratio vs placebo: 0.94
  Hospitalization for heart failure or cardiovascular death: no.: 406
  Hospitalization for heart failure or cardiovascular death: rate per 100 person-years: 5.37 per 100 person-years
  Hospitalization for heart failure or cardiovascular death: rate/1000 patient-years: 53.7 per 1000 patient years
  Hospitalization for unstable angina: %: (1.2) %
  Hospitalization for unstable angina: hazard ratio vs placebo: 0.87
  Hospitalization for unstable angina: no.: 42
